According to ChEMBL document CHEMBL4251611, “The synthesis, antifungal and apoptotic effects of triazole-oxadiazoles against Candida species” (Eur J Med Chem, 2018):
Values after ≈ are worked out from the molar mass of the structure shown.

Legend:
Pichia kudriavzevii [1] = assay: Induction of apoptosis in Candida krusei ATCC 6258 assessed as live cells at antifungal MIC90 after 24 hrs by Annexin V/propidium iodide staining based flow cytometry (reference value: 97.3%); format: functional
NIH3T3 = assay: Cytotoxicity against mouse NIH/3T3 cells assessed as reduction in cell viability after 24 hrs by MTT assay; format: cell-based; details: NIH3T3, 24 h
Pichia kudriavzevii [2] = assay: Induction of apoptosis in Candida krusei ATCC 6258 assessed as necrotic cells at antifungal MIC90 after 24 hrs by Annexin V/propidium iodide staining based flow cytometry (reference value: 0.9%); format: functional
Nakaseomyces glabratus [3] = assay: Induction of apoptosis in Candida glabrata ATCC 90030 assessed as live cells at antifungal MIC90 after 24 hrs by Annexin V/propidium iodide staining based flow cytometry (reference value: 99.5%); format: functional
Candida parapsilosis [4] = assay: Induction of apoptosis in Candida parapsilosis ATCC 22019 assessed as live cells at antifungal MIC90 after 24 hrs by Annexin V/propidium iodide staining based flow cytometry (reference value: 97.6%); format: functional
Nakaseomyces glabratus [5] = assay: Induction of apoptosis in Candida glabrata ATCC 90030 assessed as necrotic cells at antifungal MIC90 after 24 hrs by Annexin V/propidium iodide staining based flow cytometry (reference value: 0.3%); format: functional
Candida parapsilosis [6] = assay: Induction of apoptosis in Candida parapsilosis ATCC 22019 assessed as necrotic cells at antifungal MIC90 after 24 hrs by Annexin V/propidium iodide staining based flow cytometry (reference value: 1.4%); format: functional
Candida albicans [7] = assay: Induction of apoptosis in Candida albicans ATCC 90028 assessed as live cells at antifungal MIC90 after 24 hrs by Annexin V/propidium iodide staining based flow cytometry (reference value: 99.8%); format: functional
Candida parapsilosis [8] = assay: Induction of apoptosis in Candida parapsilosis ATCC 22019 assessed as late apoptotic cells at antifungal MIC90 after 24 hrs by Annexin V/propidium iodide staining based flow cytometry (reference value: 0.9%); format: functional
Candida albicans [9] = assay: Antifungal activity against Candida albicans ATCC 90028 by broth microdilution assay; format: functional
Nakaseomyces glabratus [10] = assay: Induction of apoptosis in Candida glabrata ATCC 90030 assessed as late apoptotic cells at antifungal MIC90 after 24 hrs by Annexin V/propidium iodide staining based flow cytometry (reference value: 0.2%); format: functional
Pichia kudriavzevii [11] = assay: Antifungal activity against Candida krusei ATCC 6258 by broth microdilution assay; format: functional
Candida parapsilosis [12] = assay: Antifungal activity against Candida parapsilosis ATCC 22019 by broth microdilution assay; format: functional; details: Lodderomyces parapsilosis
Pichia kudriavzevii [13] = assay: Induction of apoptosis in Candida krusei ATCC 6258 assessed as early apoptotic cells at antifungal MIC90 after 24 hrs by Annexin V/propidium iodide staining based flow cytometry (reference value: 0.5%); format: functional
Nakaseomyces glabratus [14] = assay: Induction of apoptosis in Candida glabrata ATCC 90030 assessed as early apoptotic cells at antifungal MIC90 after 24 hrs by Annexin V/propidium iodide staining based flow cytometry (reference value: 0%); format: functional
Pichia kudriavzevii [15] = assay: Induction of apoptosis in Candida krusei ATCC 6258 assessed as late apoptotic cells at antifungal MIC90 after 24 hrs by Annexin V/propidium iodide staining based flow cytometry (reference value: 1.4%); format: functional
Candida albicans [16] = assay: Induction of apoptosis in Candida albicans ATCC 90028 assessed as early apoptotic cells at antifungal MIC90 after 24 hrs by Annexin V/propidium iodide staining based flow cytometry (reference value: 0%); format: functional
Candida parapsilosis [17] = assay: Induction of apoptosis in Candida parapsilosis ATCC 22019 assessed as early apoptotic cells at antifungal MIC90 after 24 hrs by Annexin V/propidium iodide staining based flow cytometry (reference value: 0.1%); format: functional
Candida albicans [18] = assay: Induction of apoptosis in Candida albicans ATCC 90028 assessed as necrotic cells at antifungal MIC90 after 24 hrs by Annexin V/propidium iodide staining based flow cytometry (reference value: 0.2%); format: functional
Nakaseomyces glabratus [19] = assay: Antifungal activity against Candida glabrata ATCC 90030 by broth microdilution assay; format: functional
Candida albicans [20] = assay: Induction of apoptosis in Candida albicans ATCC 90028 assessed as late apoptotic cells at antifungal MIC90 after 24 hrs by Annexin V/propidium iodide staining based flow cytometry (reference value: 0%); format: functional
Candida parapsilosis [21] = assay: Induction of apoptosis in Candida parapsilosis ATCC 22019 assessed as increase in late apoptotic cells at antifungal MIC90 by Annexin V/propidium iodide staining based flow cytometry; format: functional, organism-based; details: TDE = time-dependent effect
Candida albicans [22] = assay: Induction of apoptosis in Candida albicans ATCC 90028 assessed as increase in late apoptotic cells at antifungal MIC90 by Annexin V/propidium iodide staining based flow cytometry; format: functional, organism-based; details: TDE = time-dependent effect
Nakaseomyces glabratus [23] = assay: Induction of apoptosis in Candida glabrata ATCC 90030 assessed as increase in late apoptotic cells at antifungal MIC90 by Annexin V/propidium iodide staining based flow cytometry; format: functional, organism-based; details: TDE = time-dependent effect
Pichia kudriavzevii [24] = assay: Induction of apoptosis in Candida krusei ATCC 6258 assessed as increase in late apoptotic cells at antifungal MIC90 by Annexin V/propidium iodide staining based flow cytometry; format: functional, organism-based; details: TDE = time-dependent effect

SMILES | Activity (Pichia kudriavzevii [1]) | IC50 (NIH3T3) | Activity (Pichia kudriavzevii [2]) | Activity (Nakaseomyces glabratus [3]) | Activity (Candida parapsilosis [4]) | Activity (Nakaseomyces glabratus [5]) | Activity (Candida parapsilosis [6]) | Activity (Candida albicans [7]) | Activity (Candida parapsilosis [8]) | MIC90 (Candida albicans [9]) | Activity (Nakaseomyces glabratus [10]) | MIC90 (Pichia kudriavzevii [11]) | MIC90 (Candida parapsilosis [12]) | Activity (Pichia kudriavzevii [13]) | Activity (Nakaseomyces glabratus [14]) | Activity (Pichia kudriavzevii [15]) | Activity (Candida albicans [16]) | Activity (Candida parapsilosis [17]) | Activity (Candida albicans [18]) | MIC90 (Nakaseomyces glabratus [19]) | other results
Clc1ccccc1C(c1ccccc1)(c1ccccc1)n1ccnc1 [CLOTRIMAZOLE] | 32.6% | 289 µg/mL (≈ 839 µM) | 54.3% | 46.3% | 50.7% | 50.7% | 42.2% | 56.7% | 6.4% | 31.2 µg/mL (≈ 90.6 µM) | 2.7% | 1.56 µg/mL (≈ 4.54 µM) | 1.56 µg/mL (≈ 4.54 µM) | 0.6% | 0.3% | 12.4% | 0.6% | 0.8% | 39.7% | 62.5 µg/mL (≈ 181 µM) | Activity (Candida albicans [20]): 3.1%
COc1ccc(NC(=O)CSc2nnc(CCSc3nncn3C)o2)cc1 | – | > 500 µg/mL | – | – | – | – | – | – | – | 250 µg/mL (≈ 615 µM) | – | 500 µg/mL (≈ 1230 µM) | 500 µg/mL (≈ 1230 µM) | – | – | – | – | – | – | 250 µg/mL (≈ 615 µM) | –
Cn1cnnc1SCCc1nnc(SCC(=O)Nc2nc3ccccc3s2)o1 | – | > 500 µg/mL | – | – | – | – | – | – | – | 125 µg/mL (≈ 288 µM) | – | 250 µg/mL (≈ 577 µM) | 250 µg/mL (≈ 577 µM) | – | – | – | – | – | – | 250 µg/mL (≈ 577 µM) | –
Cn1cnnc1SCCc1nnc(SCC(=O)Nc2ccc([N+](=O)[O-])cc2)o1 | 70.5% | > 500 µg/mL | 25.9% | 78.7% | 93.4% | 19.1% | 4.2% | 79.1% | 4.2% | 62.5 µg/mL (≈ 148 µM) | 1.8% | 125 µg/mL (≈ 297 µM) | 125 µg/mL (≈ 297 µM) | 0.3% | 0.4% | 3.4% | 0.4% | 0.3% | 7% | 62.5 µg/mL (≈ 148 µM) | Activity (Candida albicans [20]): 13.5%
CC(=O)N1CCN(c2ccc(OCC3COC(Cn4ccnc4)(c4ccc(Cl)cc4Cl)O3)cc2)CC1 (stereo not drawn) [KETOCONAZOLE] | 23.8% | 396 µg/mL (≈ 745 µM) | 67.7% | 23.7% | 27% | 72% | 57.3% | 35.3% | 15.2% | 62.5 µg/mL (≈ 118 µM) | 4.1% | 1.56 µg/mL (≈ 2.94 µM) | 1.56 µg/mL (≈ 2.94 µM) | 0.3% | 0.1% | 8.3% | 1.1% | 0.5% | 52.4% | 62.5 µg/mL (≈ 118 µM) | Activity (Candida albicans [20]): 11.2%
Cn1cnnc1SCCc1nnc(SCC(=O)Nc2ccc(F)cc2)o1 | – | > 500 µg/mL | – | – | – | – | – | – | – | 250 µg/mL (≈ 634 µM) | – | 500 µg/mL (≈ 1270 µM) | 500 µg/mL (≈ 1270 µM) | – | – | – | – | – | – | 250 µg/mL (≈ 634 µM) | –
Cn1cnnc1SCCc1nnc(SCC(=O)Nc2nc3ccc(Cl)cc3s2)o1 | – | 422 µg/mL (≈ 902 µM) | – | – | – | – | – | – | – | 125 µg/mL (≈ 267 µM) | – | 500 µg/mL (≈ 1070 µM) | 62.5 µg/mL (≈ 134 µM) | – | – | – | – | – | – | 500 µg/mL (≈ 1070 µM) | –
Cn1cnnc1SCCc1nnc(SCC(=O)Nc2nc3ccc([N+](=O)[O-])cc3s2)o1 | – | > 500 µg/mL | – | – | – | – | – | – | – | 125 µg/mL (≈ 261 µM) | – | 500 µg/mL (≈ 1040 µM) | 62.5 µg/mL (≈ 131 µM) | – | – | – | – | – | – | 500 µg/mL (≈ 1040 µM) | –
Cn1cnnc1SCCc1nnc(SCC(=O)Nc2ccccc2)o1 | – | > 500 µg/mL | – | – | – | – | – | – | – | 250 µg/mL (≈ 664 µM) | – | 500 µg/mL (≈ 1330 µM) | 500 µg/mL (≈ 1330 µM) | – | – | – | – | – | – | 250 µg/mL (≈ 664 µM) | –
COc1ccc2nc(NC(=O)CSc3nnc(CCSc4nncn4C)o3)sc2c1 | – | 485 µg/mL (≈ 1050 µM) | – | – | – | – | – | – | – | 125 µg/mL (≈ 270 µM) | – | 500 µg/mL (≈ 1080 µM) | 62.5 µg/mL (≈ 135 µM) | – | – | – | – | – | – | 500 µg/mL (≈ 1080 µM) | –
Cn1cnnc1SCCc1nnc(SCC(=O)Nc2ccc(Cl)cc2)o1 | – | > 500 µg/mL | – | – | – | – | – | – | – | 250 µg/mL (≈ 608 µM) | – | 500 µg/mL (≈ 1220 µM) | 500 µg/mL (≈ 1220 µM) | – | – | – | – | – | – | 250 µg/mL (≈ 608 µM) | –
Cn1cnnc1SCCc1nnc(SCC(=O)Nc2nc3ccc(F)cc3s2)o1 | 30.2% | > 500 µg/mL | 27.5% | 46.4% | 40.5% | 17% | 17.7% | 46.9% | 41.7% | 62.5 µg/mL (≈ 138 µM) | 36.6% | 62.5 µg/mL (≈ 138 µM) | 62.5 µg/mL (≈ 138 µM) | 0% | 0.1% | 42.3% | 0.1% | 0.1% | 13.5% | 62.5 µg/mL (≈ 138 µM) | Activity (Candida parapsilosis [21]): Tde; Activity (Candida albicans [22]): Tde; Activity (Nakaseomyces glabratus [23]): Tde; Activity (Pichia kudriavzevii [24]): Tde; Activity (Candida albicans [20]): 39.5%
